± gives the standard deviation of the averaged measurements.
What was measured:
[1] = compound: CCn1c(C(=O)N(C2CC2)C2CC2)cc2c3c(ncn3C)c(Nc3cc(C)n(C)n3)nc21; test: surviving fraction relative to DMSO-only wells; higher = less growth inhibition; details: exposure time: 5 days
Method in brief: (§1)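 Viability was scored with CellTiter-Glo luminescence and normalised to the median of DMSO-only wells as surviving fraction. Beforehand, log-phase tumour cell lines were seeded at 250–500 cells per well in 384-well plates, allowed 24 hours, and exposed continuously for five days to inhibitors at 0.5, 1, 5, 10, 50, 100, 500 and 1000 nM. Only lines whose three screens gave replicate Pearson r >0.7 and median Z' >0.3 were kept.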

CRIZOTINIB = compound: C[C@@H](Oc1cc(-c2cnn(C3CCNCC3)c2)cnc1N)c1c(Cl)ccc(F)c1Cl [CRIZOTINIB]; test: as above; details: exposure time: 5 days
Method in brief: as §1

Test System | surviving fraction ([1]; 0.5 nM) | surviving fraction ([1]; 1 nM) | surviving fraction ([1]; 5 nM) | surviving fraction ([1]; 10 nM) | surviving fraction ([1]; 50 nM) | surviving fraction ([1]; 100 nM) | surviving fraction ([1]; 500 nM) | surviving fraction ([1]; 1000 nM) | surviving fraction (CRIZOTINIB; 0.5 nM) | surviving fraction (CRIZOTINIB; 1 nM) | surviving fraction (CRIZOTINIB; 50 nM) | surviving fraction (CRIZOTINIB; 100 nM) | surviving fraction (CRIZOTINIB; 1000 nM) | surviving fraction (CRIZOTINIB; 5 nM) | surviving fraction (CRIZOTINIB; 10 nM) | surviving fraction (CRIZOTINIB; 500 nM)
22RV1 PROSTATE | 0.972 ± 0.044 | 1.03 ± 0.037 | 0.975 ± 0.019 | 1.02 ± 0.017 | 1.07 ± 0.031 | 1.03 ± 0.079 | 1.07 ± 0.018 | 1.08 ± 0.064 | 0.993 ± 0.1 | 1.11 ± 0.083 | 1.11 ± 0.091 | 0.976 ± 0.16 | 0.459 ± 0.024 | – | – | –
93VU HEADNECK | 0.879 ± 0.12 | 0.834 ± 0.051 | 1.05 ± 0.031 | 0.976 ± 0.029 | 1.06 ± 0.042 | 1.04 ± 0.1 | 0.832 ± 0.027 | 0.775 ± 0.11 | 1.08 ± 0.14 | 1.09 ± 0.072 | 1.14 ± 0.14 | 1.18 ± 0.081 | 0.853 ± 0.038 | 1.08 ± 0.12 | 1.16 ± 0.037 | –
143B BONE | 1 ± 0.0057 | 1 ± 0.03 | 1.02 ± 0.012 | 0.9945 ± 0.005 | 1.04 ± 0.025 | 1.02 ± 0.02 | 1.01 ± 0.026 | 1.023 ± 0.0099 | – | – | 1.09 ± 0.015 | – | 0.865 ± 0.011 | 1.08 ± 0.012 | – | –
A549 LUNG | 0.956 ± 0.034 | 0.941 ± 0.018 | 0.949 ± 0.02 | 0.963 ± 0.022 | 0.958 ± 0.057 | 1.024 ± 0.0095 | 1 ± 0.084 | 1.02 ± 0.03 | 1.07 ± 0.027 | 1.07 ± 0.015 | 1.09 ± 0.023 | 1.1 ± 0.025 | 0.649 ± 0.07 | – | – | 1.09 ± 0.043
ASKA SYNOVIAL | 1.06 ± 0.071 | 0.998 ± 0.1 | 1.06 ± 0.064 | 1.05 ± 0.062 | 1.15 ± 0.092 | 1.11 ± 0.063 | 1.07 ± 0.057 | 0.953 ± 0.051 | – | 0.942 ± 0.039 | 0.539 ± 0.043 | 0.405 ± 0.016 | 0.205 ± 0.0093 | 0.848 ± 0.05 | 0.7377 ± 0.007 | 0.168 ± 0.0038
BT20 BREAST | 1.07 ± 0.032 | 0.999 ± 0.25 | 1.09 ± 0.24 | 1 ± 0.2 | 1.1 ± 0.26 | 1.07 ± 0.16 | 1.16 ± 0.22 | 1.24 ± 0.18 | 1.24 ± 0.013 | 1.23 ± 0.091 | 1.05 ± 0.067 | 1.08 ± 0.031 | 0.592 ± 0.095 | 1.13 ± 0.059 | 1.25 ± 0.05 | 1.13 ± 0.088
BT549 BREAST | 1.14 ± 0.22 | 1 ± 0.046 | 1.06 ± 0.11 | 1.18 ± 0.12 | 0.934 ± 0.19 | 0.965 ± 0.2 | 1.04 ± 0.1 | 0.887 ± 0.13 | – | 1.07 ± 0.056 | 1.05 ± 0.062 | 1.09 ± 0.097 | 0.375 ± 0.016 | – | 1.06 ± 0.041 | –
C33A CERVIX | 0.809 ± 0.035 | 0.801 ± 0.11 | 0.926 ± 0.082 | 1.03 ± 0.19 | 0.895 ± 0.049 | 1.08 ± 0.15 | 0.768 ± 0.025 | 0.657 ± 0.1 | 0.954 ± 0.064 | 0.983 ± 0.088 | – | – | 0.828 ± 0.092 | – | 1.04 ± 0.13 | 0.925 ± 0.076
CADOES1 SOFT TISSUE | 0.958 ± 0.066 | 0.961 ± 0.061 | 0.905 ± 0.13 | 0.92 ± 0.068 | 0.889 ± 0.16 | 0.94 ± 0.026 | 0.913 ± 0.033 | 0.988 ± 0.091 | – | 0.892 ± 0.084 | 0.902 ± 0.073 | 0.949 ± 0.077 | 0.314 ± 0.06 | 0.953 ± 0.13 | 0.91 ± 0.11 | 0.713 ± 0.18
CAL51 BREAST | 0.972 ± 0.049 | 0.985 ± 0.034 | 0.98 ± 0.036 | 0.976 ± 0.043 | 1.02 ± 0.043 | 1.06 ± 0.031 | 1.02 ± 0.034 | 0.99 ± 0.015 | 0.981 ± 0.081 | 1.03 ± 0.034 | 1.01 ± 0.05 | 1.05 ± 0.046 | 0.213 ± 0.012 | 1.03 ± 0.012 | 1.07 ± 0.052 | 0.232 ± 0.024
CAL72 BONE | 1.1 ± 0.015 | 1.11 ± 0.035 | 1.06 ± 0.019 | 1.035 ± 0.005 | 1.12 ± 0.022 | 1.16 ± 0.059 | 1.13 ± 0.028 | 1.1 ± 0.035 | 1.09 ± 0.13 | 1.09 ± 0.13 | 1.08 ± 0.15 | 1.1 ± 0.11 | 0.814 ± 0.17 | 1.09 ± 0.12 | 1.11 ± 0.17 | 0.859 ± 0.15
CAL120 BREAST | 0.876 ± 0.038 | 0.911 ± 0.018 | 0.937 ± 0.036 | 0.924 ± 0.056 | 0.962 ± 0.0098 | 0.94 ± 0.036 | 0.941 ± 0.026 | 0.897 ± 0.012 | 0.969 ± 0.069 | 1 ± 0.076 | 1 ± 0.04 | 1.01 ± 0.049 | 0.685 ± 0.026 | 0.982 ± 0.038 | – | 0.933 ± 0.012
CASKI CERVIX | 0.85 ± 0.039 | 0.932 ± 0.015 | 0.972 ± 0.055 | 0.946 ± 0.073 | 0.994 ± 0.049 | 1 ± 0.062 | 0.985 ± 0.029 | 1.04 ± 0.06 | 0.955 ± 0.029 | 1 ± 0.067 | 0.999 ± 0.053 | 0.984 ± 0.052 | 0.383 ± 0.029 | – | 1.04 ± 0.06 | 0.382 ± 0.063
CHLA90 AUTONOMIC GANGLIA | 0.986 ± 0.026 | 0.944 ± 0.037 | 0.905 ± 0.032 | 0.918 ± 0.095 | 0.961 ± 0.011 | 0.975 ± 0.003 | 0.945 ± 0.065 | 0.968 ± 0.026 | – | 1 ± 0.025 | – | – | 0.476 ± 0.096 | 0.951 ± 0.016 | 0.929 ± 0.056 | 0.755 ± 0.14
CME SYNOVIAL | 1.27 ± 0.18 | 1.22 ± 0.11 | 1.29 ± 0.15 | 1.22 ± 0.064 | 1.294 ± 0.004 | 1.22 ± 0.072 | 1.21 ± 0.11 | 1.09 ± 0.06 | 1.23 ± 0.11 | 1.23 ± 0.1 | 1.21 ± 0.1 | 1.18 ± 0.022 | 0.286 ± 0.033 | 1.36 ± 0.16 | – | 0.65 ± 0.035
COLO320DM LARGE INTESTINE | 1.03 ± 0.053 | 1.11 ± 0.0081 | 1.15 ± 0.1 | 1.08 ± 0.11 | 1.17 ± 0.14 | 1.18 ± 0.095 | 1.14 ± 0.063 | 1.27 ± 0.22 | 1.13 ± 0.11 | 1.12 ± 0.055 | 1.21 ± 0.051 | 1.12 ± 0.092 | 0.398 ± 0.043 | 1.11 ± 0.056 | 1.04 ± 0.092 | 0.622 ± 0.015
DU4475 BREAST | 0.875 ± 0.26 | 0.938 ± 0.15 | 0.819 ± 0.24 | 0.887 ± 0.2 | 0.713 ± 0.23 | 0.675 ± 0.29 | 0.91 ± 0.46 | 1.05 ± 0.35 | 0.991 ± 0.16 | 1 ± 0.12 | – | – | 0.389 ± 0.057 | – | 0.947 ± 0.17 | 0.611 ± 0.05
H23 LUNG | 0.966 ± 0.048 | 0.982 ± 0.013 | 0.972 ± 0.025 | 0.981 ± 0.03 | 0.99 ± 0.015 | 0.981 ± 0.025 | 0.894 ± 0.021 | 0.903 ± 0.054 | 1.04 ± 0.058 | 1.02 ± 0.025 | 1.06 ± 0.062 | 1.11 ± 0.059 | – | 1.07 ± 0.04 | 1.08 ± 0.02 | 1.11 ± 0.072
HCC78 LUNG | 0.942 ± 0.17 | 0.672 ± 0.3 | 0.745 ± 0.26 | 0.888 ± 0.17 | 0.774 ± 0.21 | 0.914 ± 0.089 | 0.707 ± 0.16 | 0.834 ± 0.2 | 0.99 ± 0.11 | 1 ± 0.074 | 0.521 ± 0.021 | 0.522 ± 0.082 | 0.072 ± 0.029 | – | – | 0.216 ± 0.062
HCC202 BREAST | 1.32 ± 0.046 | 1.04 ± 0.17 | 1.16 ± 0.22 | 1.38 ± 0.23 | 1.4 ± 0.19 | 1.23 ± 0.057 | 1.35 ± 0.36 | 1.08 ± 0.062 | 1.38 ± 0.033 | – | 1.13 ± 0.018 | 1.25 ± 0.37 | 1.246 ± 0.0085 | 1.24 ± 0.47 | 1.05 ± 0.069 | 1.12 ± 0.12
HCC1395 BREAST | 1.15 ± 0.067 | 1.06 ± 0.14 | 1.25 ± 0.057 | 1.16 ± 0.1 | 1.216 ± 0.0056 | 1.12 ± 0.21 | 0.973 ± 0.13 | 1.1 ± 0.16 | 1.06 ± 0.18 | 1.28 ± 0.025 | 1.29 ± 0.18 | 1.28 ± 0.018 | 1.21 ± 0.061 | 1.33 ± 0.061 | 1.44 ± 0.15 | 1.21 ± 0.14
HCC1806 BREAST | 0.959 ± 0.2 | 0.993 ± 0.095 | 1.13 ± 0.043 | 1.04 ± 0.089 | 1.02 ± 0.11 | 1.21 ± 0.1 | 0.982 ± 0.078 | 0.885 ± 0.12 | 1.02 ± 0.13 | 1.09 ± 0.056 | 1.13 ± 0.066 | – | 0.318 ± 0.007 | 1.1 ± 0.065 | – | 0.634 ± 0.036
HCC1954 BREAST | 0.868 ± 0.014 | 0.837 ± 0.18 | 0.999 ± 0.22 | 0.932 ± 0.18 | 0.92 ± 0.028 | 0.896 ± 0.013 | 0.764 ± 0.065 | 0.921 ± 0.085 | 1.16 ± 0.14 | 1.25 ± 0.11 | 1.03 ± 0.18 | 0.987 ± 0.06 | 0.689 ± 0.12 | – | 1.55 ± 0.21 | 0.831 ± 0.082

Reference: the supplement of paper PMC6045584
